This assay addresses T1, 5HT6-human recombinant receptor (Homo sapiens, UniProt P50406).
T1 construct: purchased Receptor Biology; host or cells: HEK-293 cell membranes
Description: Binding to serotonin receptor 5-HT6 ([3H]-LSD radioligand displacement). Conditions: [3H]-LSD 2.7 nM, HEK-293 cell membranes. The protocol:
I) Binding to Serotonin Receptor 5-HT6
Cell membranes of HEK-293 cells expressing the 5HT6-human recombinant receptor were supplied by Receptor Biology. In said membranes the receptor concentration is 2.18 pmol/mg protein and the protein concentration is 9.17 mg/ml. The experimental protocol follows the method of B. L. Roth et al. [B. L. Roth, S. C. Craigo, M. S. Choudhary, A. Uluer, F. J. Monsma, Y. Shen, H. Y. Meltzer, D. R. Sibley: Binding of Typical and Atypical Antipsychotic Agents to 5-Hydroxytryptamine-6 and Hydroxytryptamine-7 Receptors. The Journal of Pharmacology and Experimental Therapeutics, 1994, 268, 1403] with the following slight changes. The respective part of the literature description is hereby incorporated by reference and forms part of the disclosure.
The commercial membrane is diluted (1:40 dilution) with the binding buffer: 50 mM Tris-HCl, 10 mM MgCl2, 0.5 mM EDTA (pH 7.4). The radioligand used is [^3H]-LSD at a concentration of 2.7 nM with a final volume of 200 μl. […] Non-specific binding is determined in the presence of 100 μM of serotonin. […] The inhibition constants (Ki, nM) were calculated by non-linear regression analysis using the program EBDA/LIGAND [Munson and Rodbard, Analytical Biochemistry, 1980, 107, 220]., the respective part of which is hereby incorporated by reference and forms part of the disclosure.

Where a name gives a salt, the structure may show the parent alone.

In general, Ki refers to the equilibrium dissociation constant of an inhibitor or competing ligand from its target. As usually defined, the inhibition is the percentage by which the read-out fell short of the control.

T1 sequence (P50406 whole entry): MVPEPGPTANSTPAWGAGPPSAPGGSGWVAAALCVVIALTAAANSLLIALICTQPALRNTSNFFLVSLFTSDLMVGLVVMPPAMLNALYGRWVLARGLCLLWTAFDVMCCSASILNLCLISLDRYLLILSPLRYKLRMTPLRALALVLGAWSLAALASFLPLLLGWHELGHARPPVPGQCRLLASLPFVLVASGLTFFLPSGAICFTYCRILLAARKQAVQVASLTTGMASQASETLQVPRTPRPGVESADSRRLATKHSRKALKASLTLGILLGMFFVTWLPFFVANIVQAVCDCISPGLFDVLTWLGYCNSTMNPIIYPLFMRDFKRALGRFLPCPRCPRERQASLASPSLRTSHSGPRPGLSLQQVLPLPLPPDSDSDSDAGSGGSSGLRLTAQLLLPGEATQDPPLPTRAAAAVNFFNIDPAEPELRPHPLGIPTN

`CC1CCc2c(N3CCNCC3)cccc2N1S(=O)(=O)c1cccc2ccccc12` (stereo not drawn) [Compound 3, 1,2,3,4-tetrahydro-2-methyl-5-(piperazin-1-yl)-1-α-naphthylsulfonyl)quinoline trifluoroacetate]: the inhibitory constant (Ki) (tests in triplicate) came out at 31.4 ± 0.8 nM. The inhibition at 0.1 µM (compound at 10^−7 M) is 85.8%.

The values above are taken from US20090030013A1, “SUBSTITUTED TETRAHYDRO-QUINOLINE-SULFONAMIDE COMPOUNDS, THEIR PREPARATION AND USE AS MEDICAMENTS” (LABORATORIES DEL DR. ESTEVE, S.A., priority 2007, published 2009).
